Measurements taken from US5424312A, “Aminoalkyl-substituted 2-amino-1,3,4-thiadiazoles, the preparation and use thereof” (BASF Aktiengesellschaft, priority 1991, dated 1995).
pKi: −log10 of the molar value. Where a name gives a salt, the structure may show the parent alone. Read-outs that look alike come from different tables or passages of the source.

Target: T1, dopamine D2 receptor (Rattus norvegicus, UniProt P61169)
T1 construct: Striata from rats (Sprague Dawley, Charles River) were homogenized immediately after removal; from tissue; host or cells: rat striatum (Sprague Dawley, Charles River), membranes
T1 sequence (P61169 whole entry): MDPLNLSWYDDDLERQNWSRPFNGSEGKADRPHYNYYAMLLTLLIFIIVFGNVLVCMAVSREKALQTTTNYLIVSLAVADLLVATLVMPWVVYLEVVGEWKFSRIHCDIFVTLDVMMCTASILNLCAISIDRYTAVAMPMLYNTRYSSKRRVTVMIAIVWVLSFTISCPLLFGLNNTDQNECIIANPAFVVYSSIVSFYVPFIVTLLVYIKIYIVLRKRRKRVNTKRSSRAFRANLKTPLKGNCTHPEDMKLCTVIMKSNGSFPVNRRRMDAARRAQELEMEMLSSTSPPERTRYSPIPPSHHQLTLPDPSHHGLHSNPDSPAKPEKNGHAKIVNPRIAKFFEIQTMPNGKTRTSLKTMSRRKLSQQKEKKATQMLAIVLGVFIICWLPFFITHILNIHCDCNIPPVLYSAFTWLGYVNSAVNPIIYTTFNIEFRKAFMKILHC
Assay: Receptor binding assay with 3H-ADTN on rat striatal membranes: affinity for the dopamine D2 receptor
Parameters: species or system rat (Sprague Dawley)
Procedure: The effects of the novel compounds can be shown in the receptor binding assay as follows:
Striata from rats (Sprague Dawley, Charles River) were homogenized immediately after removal in 0.32M sucrose solution (0° C.). The homogenate was filtered through gauze, the filtrate was centrifuged at 1000×g (5 min at 4° C.) and the resulting supernatant was centrifuged at 40000×g (4C 10 min) The residue (membranes) was taken up in incubation buffer (50 mM tris-HCl, 1 mM MgCl2 and 0.1% ascorbic acid, pH 7.4) and incubated at 37° C. for 20 min. The residue was subsequently washed 2× with incubation buffer by resuspension and recentrifugation. The membranes were frozen in portions in liquid nitrogen.
The assay mixtures (1 ml) were composed of membranes (380 μg of protein), 1 nM ^3 H-ADTN (NEN, Dreieich Germany, specific radioactivity 1.4 TBq/mmol) and 0.1 μM SCH 23390 (total binding) or a) with the addition of 50 nM spiperone (non-specific binding) or b) with test substance. The mixtures were prepared in triplicate.
After the incubation (40 min at 25° C.) the mixtures were filtered through glass fiber filters (Whatman GF/B) and briefly washed with ice-cold washing buffer (tris-HCl, pH 7.4). The radioactivity retained on the filters was determined by liquid scintillation counting. The non-specific binding comprised about 40-50% of the total binding.
The evaluation of the competition plots and the determination of the dissociation constant took place by iterative non-linear regression analysis based on the "ligand" program (Muson and Rodbard: Anal. Biochem. 107 (1980) 220).
Affinity of the test substances for the dopamine D2 receptor

[1] = rat striatum membranes, 1 nM 3H-ADTN, 0.1 μM SCH 23390, non-specific binding with 50 nM spiperone, 40 min at 25° C., read-out: Affinity of the test substances for the dopamine D2 receptor, Ki

| SMILES | pKi [1] | pKi |
| --- | --- | --- |
| Nc1nnc(CCCN2CC=C(c3ccccc3)CC2)s1 [Example 10, 2-Amino-5-[3-(1,2,3,6-tetrahydro-4-phenylpyridyl)propyl]-1,3,4-thiadiazolehydrochloride] | 7.49 |  |
| Nc1nnc(CCCCN2CC=C(c3ccccc3)CC2)s1 [Example 18, 2-Amino-5-[4-(1,2,3,6-tetrahydro-4-phenylpyridinyl)-butyl]-1,3,4-thiadiazole] |  | 8.30 |
| Nc1nnc(CCCCN2CCN(c3ccccn3)CC2)s1 [Example 21, 2-Amino-5-[4-(4-pyridin-2-ylpiperazinyl)butyl]-1,3,4-thiadiazole] | 7.36 |  |
| Nc1nnc(CCN2CCC(c3ccccc3)CC2)s1 [Example 24, 2-Amino-5-[2-(4-phenylpiperidinyl)ethyl]-1,3,4-thiadiazole] | 7.43 |  |
| Nc1nnc(CCCCCN2CC=C(c3ccccc3)CC2)s1 [Example 19, fumarate] |  | 8.00 |
| Nc1nnc(CCN2CC=C(c3ccccc3)CC2)s1 [Example 4, 2-Amino-5-[2-(1,2,3,6-tetrahydro-4-phenylpyridyl)-ethyl]-1,3,4-thiadiazolehydrochloride] | 7.52 |  |
| Nc1nnc(CCN2CC=C(c3ccc(Cl)cc3)CC2)s1 [Example 7, 2-Amino-5-[2-(4-(4-chlorophenyl)-l,2,3,6-tetrahydropyridyl)ethyl]-1,3,4-thiadiazole dihydrochloride] | 7.52 |  |
